In article PMC10082216 (Nature Communications, 2023):
Where a name gives a salt, the structure may show the parent alone. Read-outs that look alike come from different tables or passages of the source.

How the values were obtained:
HEK293T = settings: cited from earlier work
[1] = test system: mature stage V gametocytes (NF54 strain); assay: High-throughput screening: killing effect by MitoTracker staining, primary screening at 1.11 µM and dose-response analysis; type: cell-based, Plasmodium falciparum; settings: read-out: Killing IC50
Protocol: (§1) Screening was conducted as previously described. Briefly, mature stage V gametocytes (NF54 strain) were cultured in vitro, then exposed to the explored compounds and filtered thereafter through layers of microspheres (microsphiltration)[25],[28]. Stiffening activity was determined by comparing gametocytemia up and downstream from the microsphere layers after filtration of drug-exposed gametocytes in 384-well plates using a vacuum manifold. Gametocytemia was assessed using DNA (Sybr Green) and erythrocyte membrane (CellMask) staining. Killing effect was assessed by MitoTracker staining. We screened two small libraries, specifically the Pathogen Box from the Medicine for Malaria Venture and the Kinase Inhibitors Box from GSK (400 and 350 compounds, respectively, Fig. 1A, B), and furthermore the larger ReFrame repurposing library (12,805 compounds, Fig. 1C).
(§2) The Pathogen Box library (400 compounds, provided by MMV-Medicine for Malaria Ventures, Geneva, Switzerland), the Kinase Inhibitors Box library (350 compounds, provided by GSK-Glaxo SmithKline DDW Unit, Tres Cantos, Spain), and the ReFrame library (12,805 compounds provided by the California Institute for Biomedical Research-Calibr, La Jolla, CA, USA) were used according to the providers’ instructions. DMSO-solubilized compounds (10 mM stock concentration) were loaded in 384-well plates (Seahorse, cat. no. 201035−100). Two columns were left empty for the controls. For each compound, 5 nL were pre-spotted in a single well to reach a final concentration of 1.11 μM. The final volume for each well was 45 μl. Controls were prepared as follows: 22.5 nL of DMSO were loaded in 16 wells as negative controls (0.05% final concentration); 22.5 nL of NITD609 (provided by MMV, Geneva, Switzerland) 1 mM were loaded in 8 wells (0.5 μM final concentration), 17 nL of Calyculin A (Sigma, cat. no. C5552) […] were loaded in 6 wells (75 nM final concentration) and 225 nL of Gentian Violet (MolPort, cat. no. 002-133-551) 10 mM were loaded in the remaining 2 wells (50 μM final concentration). Plates were prepared in triplicate for the Pathogen Box and sextuplicate for the Kinase Inhibitors Box.
(§3) Plasmodium falciparum NF54 strain parasites (used for screening campaign) were cultured at 4% hematocrit in RBCs from informed blood donors (blood group A) as previously described. Parasites were taken from the -80 °C freezer, then rapidly melt for 1 minute in a 37 °C water bath. A saline solution was gently added to avoid the lysis. Firstly, NaCl dissolved at 12% in distilled water (1/5 of the volume measured in the cryovial) and then NaCl dissolved at 1.6% (9 times the cryovial’s volume). After that, fresh RBCs were added to allow parasites re-growth. Infected RBCs were kept in RPMI medium (Sigma-Aldrich, cat. no. R4130), supplemented with 10% of decomplemented human serum, hypoxanthine 50 mg/l (Sigma-Aldrich, cat. no. H9636). Biobank of Castilla y Leon and Centro de Transfusiones de Madrid as providers of human red blood cell concentrates. The production of gametocytes was induced from a 0.5% ring-stage parasitemia (day 0). Medium was changed daily to induce gametocytes differentiation, as previously described. At day 17, gametocytes were concentrated using a density gradient medium (NycoPrep 1.077, Progen cat. no. 1114550)[27]. Parasitemia was adjusted by FACS (SYBR-Green and MitoTracker double staining, 3–5% targeted). Hematocrit was adjusted to 0.5% by adding fresh RBCs and controlled by manual counting in a Neubauer chamber (Celeromics, cat. no. 717810). Finally, the gametocyte suspension was poured (45 μL/well) into the compound-containing 384-well microplate, then incubated 24 hours both for the screening campaign and the dose-response analysis. Both asexual and sexual stages were cultivated in RPMI 1640 supplemented with 25 mM HEPES, 50 mg/L hypoxanthine, 50 μg/mL gentami-cin, 10% pooled heat-inactivated human serum (A^+).

[2] = test system: mature stage V gametocytes (NF54 strain); assay: microbe, parasite or virus in culture; type: cell-based, Plasmodium falciparum; settings: read-out: Stiffening IC50 (retention)
Protocol: as §1, §2, §3

HepG2 = settings: cited from earlier work
P.falciparum Dd2 = test system: P.falciparum Dd2; design: method as in previously published reports (Table S1 legend); settings: 72 h; results in previous assays; ref previously published reports (Table S1 legend); read-out: 72-h Dd2-SybrGreen PBFS assay IC50; cited from earlier work
[3] = Hit scoring on safety in human subjects and pharmacokinetics; settings: for Score (PK): peak plasma concentration vs IC50
Source text: Hits from the ReFrame library were further selected based on safety, preferably oral administration (high score if oral), and potential availability for widespread use.

[4] = read-out: Cellular cytotoxicity assay IC50, HEK293T, 72 h, first value of cell, ref previously published reports (Table S1 legend)
[5] = stage V gametocytes NF54, 24 h, dose-response analysis, N/A = not active in dose-response analysis
[6] = read-out: Cellular cytotoxicity assay IC50, HepG2, 72 h, second value of cell, ref previously published reports (Table S1 legend)
[7] = Plasmodium falciparum, NF54, 24 h, stage V gametocytes NF54, 24 h, dose-response analysis, N/A = not active in dose-response analysis
[8] = Plasmodium falciparum, NF54, 24 h
[9] = Plasmodium falciparum, stage V gametocytes NF54, 24 h, dose-response analysis, N/A = not active in dose-response analysis

Row | Compound | IC50 (HEK293T; [4]) [nM] | IC50 [1, 5] [nM] | IC50 [2, 5] [nM] | IC50 (HepG2; [6]) [nM] | IC50 (P.falciparum Dd2) [nM] | IC50 [2, 8] [nM] | IC50 (HEK293T) [nM] | IC50 (HepG2) [nM] | Score (PK) [3] | other results
1 | CC(=O)[O][Hg][c]1cc(C(C)(C)CC(C)(C)C)ccc1O [Acetomeroctol] | 462 | 7200 | 5000 | 1920 | – | – | – | – | – | –
2 | CCCCC(CC)CNC(=N)NC(=N)NCCCCCCNC(=N)NC(=N)NCC(CC)CCCC (stereo not shown) [Alexidine dihydrochloride] | 3330 | – | – | 3060 | 32 | 550 | – | – | – | IC50 [1, 7]: 41000 nM
3 | O=C(CC1NCCCC1O)Cn1cnc2cc(Br)c(Cl)cc2c1=O (stereo not shown) [Halofuginone] | – | – | – | – | 1 | 4300 | 89 | 36 | – | IC50 [1, 9]: 240 nM; Score (safety) ([3]; human): 3
4 | CC1CCC(C(C)C)C(OC(=O)C[N+](C)(C)CCCCCCCCCC[N+](C)(C)CC(=O)OC2CC(C)CCC2C(C)C)C1 (stereo not shown) [Decamethoxine] | – | 8100 | 1000 | – | 61 | – | 3300 | 4300 | – | –
5 | C[C@H]1O[C@@H](O[C@H]2[C@@H](O)C[C@H](O[C@H]3[C@@H](O)C[C@H](O[C@H]4CC[C@@]5(C)[C@H](CC[C@@H]6[C@@H]5CC[C@]5(C)[C@@H](C7=CC(=O)OC7)CC[C@]65O)C4)O[C@@H]3C)O[C@@H]2C)C[C@H](O)[C@@H]1O [Digitoxin] | 8 | – | – | 11 | – | 10600 | – | – | 0 | Score (safety) ([3]; human): 3
6 | CO[C@H]1C[C@H](O[C@H]2CC[C@]3(C=O)[C@H]4CC[C@]5(C)[C@@H](C6=CC(=O)OC6)CC[C@]5(O)[C@@H]4CC[C@]3(O)C2)O[C@H](C)[C@H]1O [Cymarine] | 71 | – | – | 102 | 9950 | 330 | – | – | 0 | Score (safety) ([3]; human): 0
7 | COc1cccc2c1C(=O)c1c(O)c3c(c(O)c1C2=O)C[C@@](O)(C(C)=O)C[C@@H]3O[C@H]1C[C@H](N)[C@H](O)[C@H](C)O1 [Daunorubicin] | – | – | – | – | – | 12000 | 39 | 126 | – | –
8 | C(=N\NC1=NCCN1)/c1c2ccccc2c(/C=N/NC2=NCCN2)c2ccccc12 [Bisantrene HCl] | 54 | 2200 | – | 62 | 65 | – | – | – | – | –
9 | Tyrothricin | – | – | – | – | – | – | 1800 | 1900 | – | –
10 | CC1=C(C)C(=O)C(CCCCCCCCCC[P+](c2ccccc2)(c2ccccc2)c2ccccc2)=CC1=O [SkQ1] | – | 3850 | 1900 | – | 1050 | – | 778 | 3130 | – | –
11 | C[C@@H]1O[C@@H](O[C@H]2CC[C@]3(C=O)[C@H]4CC[C@]5(C)[C@@H](C6=CC(=O)OC6)CC[C@]5(O)[C@@H]4CC[C@]3(O)C2)[C@H](O)[C@H](O)[C@H]1O [Convallatoxin] | 26 | – | – | 33 | 16 | 50 | – | – | – | –
12 | COC(=O)C1=C(C)NC(C)=C(C(=O)OC)C1c1cc([N+](=O)[O-])ccc1OCCCCNCC(O)COc1ccccc1 (stereo not shown) [YM 161514] | – | 5550 | 3600 | – | 2260 | – | – | 3970 | 0 | Score (safety) [3]: 0
13 | COc1ccc(NC(=O)N2CCCCN3[C@H](CN(C)C)[C@H](c4ccc(C#Cc5ccccc5)cc4)[C@@H]3C2)cc1 [BRD-7929] | – | 2200 | 3800 | – | – | – | – | – | 0 | Score (safety) [3]: 0
14 | O=C(NCCN1CCCC1)c1cc(-c2ccc(CN3CCOCC3)cc2)nc2ccc(F)cc12 [DDD498] | – | – | – | – | 4 | 2600 | – | – | 0 | IC50 [1, 7]: 1700 nM; Score (safety) [3]: 0
15 | COC(=O)C[C@](O)(CCCC(C)(C)O)C(=O)O[C@@H]1C(OC)=C[C@]23CCCN2CCc2cc4c(cc2[C@H]13)OCO4 [Homoharringtonine] | – | – | – | – | 7 | 2300 | 32 | 122 | – | IC50 [1, 7]: 1730 nM
16 | CO[C@H]1[C@H](O)[C@H](O[C@H]2CC[C@@]3(C=O)[C@H](CC[C@@H]4[C@@H]3CC[C@]3(C)[C@@H](C5=CC(=O)OC5)CC[C@]43O)C2)O[C@@H](C)[C@@H]1O [Peruvoside] | 20 | – | – | 32 | 9950 | 2680 | – | – | – | –
17 | CN(C)CCOc1ccc2[nH]c(C(=O)NCC#Cc3ccc(C(=O)NO)cc3)cc2c1 [CRA-026440] | – | 16000 | 550 | – | 63 | – | 81 | 11 | – | –
18 | Cc1nc2c(s1)C(O)=C/C(=N\CCN(C)C)C2=O [BN-82685] | 2920 | – | – | 1890 | 1740 | 4600 | – | – | – | IC50 [1, 7]: 2800 nM
19 | CC(=O)O[C@H]1C[C@H](O[C@H]2[C@@H](O)C[C@H](O[C@H]3[C@@H](O)C[C@H](OC4CC[C@@]5(C)[C@H](CC[C@@H]6[C@@H]5CC[C@]5(C)[C@@H](C7=CC(=O)OC7)CC[C@]65O)C4)O[C@@H]3C)O[C@@H]2C)O[C@H](C)[C@H]1O[C@@H]1O[C@H](CO)[C@@H](O)[C@H](O)[C@H]1O (stereo partly shown) [Lanatoside A] | 171 | – | – | 136 | 9950 | 860 | – | – | 0 | Score (safety) ([3]; human): 0
20 | CC(=O)OC[C@H]1O[C@@H]([S-])[C@H](OC(C)=O)[C@@H](OC(C)=O)[C@@H]1OC(C)=O.CCP(CC)CC.[Au+] [Auranofin] | – | 2580 | 3500 | – | – | – | – | – | 0 | Score (safety) [3]: 0
21 | COc1cccc2c1ccc1nc3cccc(C(=O)N[C@H](C)CN(C)C)c3nc12 [MLN 576] | – | – | 5020 | – | 2040 | – | 218 | 413 | 0 | Score (safety) [3]: 0
22 | CO[C@H]1/C=C\C=C(/C)C(=O)NC2=CC(=O)C(NCCN(C)C)=C(C[C@@H](C)C[C@H](OC)[C@H](O)[C@@H](C)/C=C(\C)[C@@H]1OC(N)=O)C2=O [Alvespimycin hydrochloride] | 98 | – | – | 14 | 272 | 960 | – | – | – | IC50 [1, 9]: 1750 nM
23 | CC[C@H]1CN2CCc3cc(OC)c(OC)cc3[C@@H]2C[C@@H]1C[C@H]1NCCc2cc(O)c(OC)cc21 [Cephaeline] | 14 | – | – | 62 | 28 | 3800 | – | – | – | IC50 [1, 8]: 1000 nM
